Reference: ChEMBL document CHEMBL4732263 (Bioorg Med Chem, 2021)
In brackets after ≈: the same amount, converted by molar mass. Each block holds one compound with its values, some of them ahead of it.

Legend:
in vitro [1] = conditions: human, liver microsomes
[2] = human, microsomes, 1 h, 1 µM
in vitro [3] = conditions: mouse, liver microsomes
physchem [4] = conditions: HCl, pH 2, pH 2
physchem [5] = conditions: octanol/water, pH 7.4
in vitro [6] = conditions: human, liver microsomes; remark: listed apart in the source
physchem [7] = conditions: PBS, pH 6.5, pH 6.5
in vitro [8] = conditions: mouse, liver microsomes; remark: listed apart in the source
[9] = mouse, microsomes, 1 h, 1 µM
in vitro [10] = conditions: Balb/C, mouse, plasma; at 1 µg/mL
cells = conditions: Homo sapiens, HEK293, 10 min
[11] = Clearance in Sprague-Dawley rat blood at 2.9 mg/kg, iv up to 24 hrs by LC-MS analysis; assay type: ADME, organism-based; conditions: whole blood
[12] = Volume of distribution at steady state in Sprague-Dawley rat plasma at 2.9 mg/kg, iv up to 24 hrs by LC-MS analysis; assay type: ADME, organism-based; conditions: read-out: Vdss
in vitro [13] = conditions: human, Caco-2
[14] = Plasma clearance in Sprague-Dawley rat at 2.9 mg/kg, iv up to 24 hrs by LC-MS analysis; assay type: ADME, organism-based
in vitro [15] = conditions: human, Caco-2; remark: listed apart in the source
in vitro [16] = conditions: Balb/C, mouse, plasma; at 1 µg/mL; remark: listed apart in the source
[17] = Drug excretion in Sprague-Dawley rat urine at 2.9 mg/kg, iv up to 24 hrs by LC-MS analysis; assay type: ADME, organism-based; conditions: read-out: Drug excretion
[18] = molecular target: Sodium channel protein type 5 subunit alpha (Homo sapiens, UniProt Q14524)
Sequence of Sodium channel protein type 5 subunit alpha (Q14524 whole entry): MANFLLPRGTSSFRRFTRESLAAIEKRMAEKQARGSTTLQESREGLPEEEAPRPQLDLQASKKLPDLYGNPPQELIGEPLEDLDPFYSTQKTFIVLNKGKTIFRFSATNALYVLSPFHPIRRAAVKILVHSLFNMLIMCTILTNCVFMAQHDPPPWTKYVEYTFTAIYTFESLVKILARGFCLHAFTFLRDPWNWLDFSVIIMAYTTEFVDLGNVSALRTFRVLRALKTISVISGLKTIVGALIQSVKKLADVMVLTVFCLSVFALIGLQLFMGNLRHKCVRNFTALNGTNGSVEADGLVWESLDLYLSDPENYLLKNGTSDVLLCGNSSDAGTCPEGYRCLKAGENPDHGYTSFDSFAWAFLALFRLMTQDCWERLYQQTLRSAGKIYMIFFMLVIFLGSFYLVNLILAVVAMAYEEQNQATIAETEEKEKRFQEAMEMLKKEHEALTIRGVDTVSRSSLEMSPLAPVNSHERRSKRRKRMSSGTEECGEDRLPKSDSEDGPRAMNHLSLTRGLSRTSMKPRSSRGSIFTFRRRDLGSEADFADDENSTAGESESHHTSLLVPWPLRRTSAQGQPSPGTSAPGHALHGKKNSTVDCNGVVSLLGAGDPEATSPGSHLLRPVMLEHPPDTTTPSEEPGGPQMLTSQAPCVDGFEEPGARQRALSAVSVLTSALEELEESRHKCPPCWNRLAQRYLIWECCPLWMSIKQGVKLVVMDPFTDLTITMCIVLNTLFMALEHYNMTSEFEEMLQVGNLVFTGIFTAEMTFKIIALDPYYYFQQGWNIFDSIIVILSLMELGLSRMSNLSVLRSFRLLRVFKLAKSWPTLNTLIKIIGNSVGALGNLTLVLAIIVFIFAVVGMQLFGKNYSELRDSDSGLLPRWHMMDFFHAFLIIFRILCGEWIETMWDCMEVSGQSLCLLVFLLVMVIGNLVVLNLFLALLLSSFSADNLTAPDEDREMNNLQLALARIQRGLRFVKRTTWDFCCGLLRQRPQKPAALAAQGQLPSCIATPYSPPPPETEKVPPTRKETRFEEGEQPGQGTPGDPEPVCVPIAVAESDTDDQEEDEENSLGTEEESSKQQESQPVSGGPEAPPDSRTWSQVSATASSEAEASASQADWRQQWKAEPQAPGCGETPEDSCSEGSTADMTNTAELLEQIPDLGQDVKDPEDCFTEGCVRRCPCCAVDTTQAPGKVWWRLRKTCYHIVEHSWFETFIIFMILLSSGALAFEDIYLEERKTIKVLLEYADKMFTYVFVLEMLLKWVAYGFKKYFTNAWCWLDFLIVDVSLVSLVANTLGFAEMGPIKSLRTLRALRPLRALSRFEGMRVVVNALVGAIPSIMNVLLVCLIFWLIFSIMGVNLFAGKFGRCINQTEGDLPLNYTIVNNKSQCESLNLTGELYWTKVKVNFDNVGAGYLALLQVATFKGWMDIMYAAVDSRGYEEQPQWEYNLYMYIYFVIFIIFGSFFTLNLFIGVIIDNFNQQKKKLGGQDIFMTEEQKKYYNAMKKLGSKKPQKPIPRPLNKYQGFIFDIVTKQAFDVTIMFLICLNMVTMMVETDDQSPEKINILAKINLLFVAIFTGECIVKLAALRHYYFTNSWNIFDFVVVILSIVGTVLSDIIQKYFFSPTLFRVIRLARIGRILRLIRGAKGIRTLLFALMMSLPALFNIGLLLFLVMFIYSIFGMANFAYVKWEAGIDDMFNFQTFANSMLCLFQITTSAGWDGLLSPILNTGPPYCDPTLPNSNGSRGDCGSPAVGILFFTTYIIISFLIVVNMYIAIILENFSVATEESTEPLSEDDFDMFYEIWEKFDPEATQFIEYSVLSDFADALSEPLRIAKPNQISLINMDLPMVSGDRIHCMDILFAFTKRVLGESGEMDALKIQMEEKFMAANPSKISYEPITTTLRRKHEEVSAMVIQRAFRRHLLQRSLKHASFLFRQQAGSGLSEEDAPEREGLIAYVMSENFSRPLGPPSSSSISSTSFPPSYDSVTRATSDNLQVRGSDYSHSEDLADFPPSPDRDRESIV

[19] = Volume of distribution at steady state in Balb/C mouse blood at 1.9 mg/kg, iv up to 24 hrs by LC-MS analysis; assay type: ADME, organism-based; conditions: whole blood, read-out: Vdss
[20] = AUC(0 to infinity) in Balb/C mouse plasma at 1.9 mg/kg, iv up to 24 hrs by LC-MS analysis; assay type: ADME, organism-based; parameters: route intravenous, dose 1.9 mg/kg, time <=24
in vitro [21] = conditions: human, Caco-2; remark: listed apart in the source
[22] = Volume of distribution at steady state in Sprague-Dawley rat blood at 2.9 mg/kg, iv up to 24 hrs by LC-MS analysis; assay type: ADME, organism-based; conditions: whole blood, read-out: Vdss
[23] = AUC(0 to infinity) in Sprague-Dawley rat plasma at 2.9 mg/kg, iv up to 24 hrs by LC-MS analysis; assay type: ADME, organism-based; parameters: route intravenous, dose 2.9 mg/kg, time <=24
[24] = Volume of distribution at steady state in Balb/C mouse plasma at 1.9 mg/kg, iv up to 24 hrs by LC-MS analysis; assay type: ADME, organism-based; conditions: read-out: Vdss
[25] = molecular target: Voltage-gated inwardly rectifying potassium channel KCNH2 (Homo sapiens, UniProt Q12809)
Sequence of Voltage-gated inwardly rectifying potassium channel KCNH2 (Q12809 whole entry): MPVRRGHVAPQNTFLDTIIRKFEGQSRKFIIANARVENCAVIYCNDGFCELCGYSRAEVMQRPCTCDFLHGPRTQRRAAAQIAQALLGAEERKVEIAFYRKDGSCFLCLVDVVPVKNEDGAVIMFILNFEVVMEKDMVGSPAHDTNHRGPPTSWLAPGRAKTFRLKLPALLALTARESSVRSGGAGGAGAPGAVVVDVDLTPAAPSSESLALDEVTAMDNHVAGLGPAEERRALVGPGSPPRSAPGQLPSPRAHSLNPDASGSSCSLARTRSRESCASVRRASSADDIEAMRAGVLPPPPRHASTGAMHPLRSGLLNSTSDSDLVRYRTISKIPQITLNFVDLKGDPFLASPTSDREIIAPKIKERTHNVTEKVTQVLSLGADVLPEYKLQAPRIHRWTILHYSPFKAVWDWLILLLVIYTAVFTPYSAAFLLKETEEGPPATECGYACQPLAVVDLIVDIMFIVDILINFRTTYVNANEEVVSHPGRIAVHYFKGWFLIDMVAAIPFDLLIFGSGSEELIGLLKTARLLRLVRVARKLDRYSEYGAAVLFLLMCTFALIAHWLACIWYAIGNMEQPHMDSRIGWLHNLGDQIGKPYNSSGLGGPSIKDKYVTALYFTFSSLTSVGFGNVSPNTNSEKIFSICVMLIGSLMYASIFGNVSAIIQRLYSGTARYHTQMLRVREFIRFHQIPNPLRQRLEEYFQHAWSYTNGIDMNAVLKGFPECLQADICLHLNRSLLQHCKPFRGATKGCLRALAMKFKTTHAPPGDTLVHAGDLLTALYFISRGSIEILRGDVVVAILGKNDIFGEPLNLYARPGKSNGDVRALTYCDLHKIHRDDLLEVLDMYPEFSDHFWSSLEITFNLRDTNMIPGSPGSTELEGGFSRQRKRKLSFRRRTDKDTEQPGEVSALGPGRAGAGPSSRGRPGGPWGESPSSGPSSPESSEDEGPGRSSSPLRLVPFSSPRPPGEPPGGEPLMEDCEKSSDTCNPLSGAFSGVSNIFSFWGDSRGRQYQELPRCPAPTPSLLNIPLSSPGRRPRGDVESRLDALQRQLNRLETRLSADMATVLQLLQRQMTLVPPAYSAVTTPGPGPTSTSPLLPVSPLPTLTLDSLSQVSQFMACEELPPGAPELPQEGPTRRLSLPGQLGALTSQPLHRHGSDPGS

[26] = Apparent half life in Balb/C mouse at 1.9 mg/kg, iv up to 24 hrs by LC-MS analysis; assay type: ADME, organism-based; conditions: in vivo, read-out: t1/2(app) (converted)
[27] = Plasma clearance in Balb/C mouse at 1.9 mg/kg, iv up to 24 hrs by LC-MS analysis; assay type: ADME, organism-based
[28] = Half life in Sprague-Dawley rat at 2.9 mg/kg, iv up to 24 hrs by LC-MS analysis; assay type: ADME, organism-based; conditions: in vivo
[29] = Clearance in Sprague-Dawley rat renal blood at 2.9 mg/kg, iv up to 24 hrs by LC-MS analysis; assay type: ADME, organism-based; conditions: whole blood
in vivo = conditions: Balb/C, mouse, po, at 1.9 to 3.5 mg/kg
in vitro [30] = conditions: human, Caco-2; remark: listed apart in the source
[31] = mouse, blood, 2 h; at 1 µg/mL
[32] = Clearance in Balb/C mouse blood at 1.9 mg/kg, iv up to 24 hrs by LC-MS analysis; assay type: ADME, organism-based; conditions: whole blood
in vitro [33] = conditions: human, Caco-2; remark: listed apart in the source

half-life at 1 h, 1 µM (in vitro [1]): 62 min
CL free [2]: 433 µL/min/mg
half-life at 1 h, 1 µM (in vitro [3]): 21 min
solubility kinetic (physchem [4]): 12.5 µg/mL (≈ 30.5 µM)
logD (physchem [5]): > 5.3
microsomal CLint at 1 h, 1 µM (in vitro [6]): 28 µL/min/mg
solubility kinetic (physchem [7]): 3.1 µg/mL (≈ 7.57 µM)
microsomal CLint at 1 h, 1 µM (in vitro [8]): 83 µL/min/mg
CL free [9]: 1283 µL/min/mg
Compound: N=C(N)NC(=O)c1nc(-c2cc3ccccc3s2)c(N2CCCCCC2)nc1N

metabolised at 4 h, 1 ug/ml (in vitro [10]): < 6%
half-life at 1 h, 1 µM (in vitro [1]): > 255 min
CL free [2]: < 7 µL/min/mg
IC50 (cells): > 30 µM
clearance [11]: 78.9 mL/min/kg
Vd [12]: 3.4 L/kg
recovery at 2 h, 20 µM (in vitro [13]): 97%
half-life at 1 h, 1 µM (in vitro [3]): > 255 min
clearance [14]: 51.3 mL/min/kg
recovery at 2 h, 20 µM (in vitro [15]): 104%
solubility kinetic (physchem [4]): > 100 µg/mL
fraction unbound at […], 1 ug/ml (in vitro [16]): 0.4
dose excreted at 24 h [17]: 36.4%
microsomal CLint at 1 h, 1 µM (in vitro [6]): < 7 µL/min/mg
Vd [19]: 0.7 L/kg
AUC(0-inf) [20]: 2.7 µM·h
solubility kinetic (physchem [7]): 12.5 µg/mL (≈ 41.2 µM)
microsomal CLint at 1 h, 1 µM (in vitro [8]): < 7 µL/min/mg
Papp B→A at 2 h, 20 µM (in vitro [21]): 0.26 ×10⁻⁶ cm/s
Vd [22]: 5.2 L/kg
AUC(0-inf) [23]: 3.2 µM·h
CL free [9]: < 7 µL/min/mg
Vd [24]: 0.7 L/kg
half-life [26]: 37.2 min
clearance [27]: 38 mL/min/kg
half-life [28]: 402 min
CL renal at 24 h [29]: 29.2 mL/min/kg
bioavailability at 24 h (in vivo): 0.81%
Papp A→B at 2 h, 20 µM (in vitro [30]): 0.57 ×10⁻⁶ cm/s
Stabilty [31]: Unstable
clearance [32]: 41 mL/min/kg
Compound: COc1ncc(-c2nc(C(=O)NC(=N)N)c(N)nc2N)cn1
IC50 [18]: > 30 µM
IC50 [25]: > 30 µM

half-life at 1 h, 1 µM (in vitro [1]): 50 min
CL free [2]: 687 µL/min/mg
half-life at 1 h, 1 µM (in vitro [3]): 13 min
solubility kinetic (physchem [4]): 50 µg/mL (≈ 146 µM)
microsomal CLint at 1 h, 1 µM (in vitro [6]): 35 µL/min/mg
solubility kinetic (physchem [7]): 6.3 µg/mL (≈ 18.3 µM)
microsomal CLint at 1 h, 1 µM (in vitro [8]): 138 µL/min/mg
CL free [9]: 687 µL/min/mg
Compound: N=C(N)NC(=O)c1nc(-c2ccco2)c(N2CCCCCC2)nc1N

half-life at 1 h, 1 µM (in vitro [1]): 76 min
CL free [2]: 355 µL/min/mg
half-life at 1 h, 1 µM (in vitro [3]): 26 min
solubility kinetic (physchem [4]): 25 µg/mL (≈ 59.3 µM)
logD (physchem [5]): > 5.3
microsomal CLint at 1 h, 1 µM (in vitro [6]): 23 µL/min/mg
solubility kinetic (physchem [7]): 3.1 µg/mL (≈ 7.36 µM)
microsomal CLint at 1 h, 1 µM (in vitro [8]): 66 µL/min/mg
CL free [9]: 1020 µL/min/mg
Compound: N=C(N)NC(=O)c1nc(-c2ccc(C(F)(F)F)cc2)c(N2CCCCCC2)nc1N

efflux ratio at 2 h, 20 µM (in vitro [33]): 8.4
Papp B→A at 2 h, 20 µM (in vitro [21]): 12 ×10⁻⁶ cm/s
Papp A→B at 2 h, 20 µM (in vitro [30]): 1.4 ×10⁻⁶ cm/s
Compound: COC(=O)c1ccccc1-c1c2ccc(=N)cc-2oc2cc(N)ccc12
